pIC50: −log10 of the molar value.

The results in this text go back to patent US6043246A, “Urea derivatives” (Banyu Pharmaceutical Co., Ltd., priority 1996, dated 2000).

The target in the experiment is T1, human NPY Y5 receptor (Homo sapiens, UniProt Q15761).
T1 construct: expressed in transfected cells; host or cells: COS-7, CHO and LM(tk-) cells (ATCC); vectors pcDNA3, pRc/RSV, pCI-neo; membrane preparations
T1 sequence (Q15761 1-445): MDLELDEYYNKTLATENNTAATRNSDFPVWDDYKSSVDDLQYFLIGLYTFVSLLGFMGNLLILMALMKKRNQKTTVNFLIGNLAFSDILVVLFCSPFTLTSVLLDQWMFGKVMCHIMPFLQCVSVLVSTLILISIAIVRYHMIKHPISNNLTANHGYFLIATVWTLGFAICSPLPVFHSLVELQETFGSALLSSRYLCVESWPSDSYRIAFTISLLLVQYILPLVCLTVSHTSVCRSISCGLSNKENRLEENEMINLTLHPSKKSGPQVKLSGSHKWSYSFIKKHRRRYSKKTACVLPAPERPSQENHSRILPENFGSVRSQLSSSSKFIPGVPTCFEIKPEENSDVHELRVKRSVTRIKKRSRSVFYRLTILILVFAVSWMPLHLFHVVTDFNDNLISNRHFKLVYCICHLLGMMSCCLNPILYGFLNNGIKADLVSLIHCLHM
As to the kind of experiment: Test of Inhibition of NPY Binding ([125I] peptide YY binding to membrane preparations). The conditions noted are these: membranes of cells expressing NPY Y5 receptor, 25° C., 2 hours, read-out: concentration needed to inhibit 50% of the specific binding of peptide YY (IC50 value). From the text:
cDNA Sequence encoding a human NPY Y5 receptor [International Publication WO 96/16542] was cloned into expression vectors pcDNA3, pRc/RSV (manufactured by Invitrogen) and pCI-neo (manufactured by Promega). Using the cationic lipid method [see Proceedings of the National Academy of Science of the United States of America, vol.84, p.7413 (1987)], host cells COS-7, CHO and LM(tk-) (American Type Culture Collection) were transfected with the thus prepared expression vectors to obtain cells in which the NPY Y5 receptor had been expressed.
Each of the membrane preparations thus prepared from the cells in which the NPY Y5 receptor had been expressed was incubated together with each compound to be tested and 20,000 cpm of [^125 I] peptide YY (manufactured by Amersham) at 25° C. for 2 hours in an assay buffer solution (25 mM HEPES buffer, pH 7.4, containing 10 mM magnesium chloride, 1 mM phenylmethylsulfonyl fluoride and 0.1% bacitracin) and then, the reaction mixture was filtered through a glass filter GF/C. After washing with 50 mM Tris buffer, pH 7.4, containing 0.3% BSA, radioactivity on the glass filter was measured using a gamma counter. […] As the result, IC50 value of the compound of Example 17 was calculated to be […].

With `COc1ccc(-c2cc(NC(=O)N3CCN(c4cccc(Cl)c4)CC3)[nH]n2)cc1` [Example 17, 3-[4-(3-chlorophenyl)piperazinyl]carbonylamino-5-(4-methoxyphenyl)pyrazole], the pIC50 is 7.57.
